The results in this text go back to patent US20080045582A1, “ENA-78 Gene Polymorphisms and Protein Concentrations as Diagnostic and Prognostic Tools” (priority 2006, published 2008).

In experiment [1] the test system is ENA-78. Nature of the experiment: IL-1beta-stimulated ENA-78 production from HUVECs, cytometric immunofluorescence. The experiment is classed as cell-based, human. To be noted: for effect of co-treatment on the effect of AT on IL-1beta-stimulated ENA-78 production: IL-1beta and AT 10 uM, mevalonate 250 μM, FPP 5 μM, GGPP 5 μM; for stimulation of ENA-78 production by IL-1beta, times that of basal production: FIG. 15. The protocol:
Human umbilical vein endothelial cells (HUVECs) (Clonetics Cell Systems; Cambrex Bio Science Walkersville, Inc., Walkersville, USA) were cultured as previously described. Briefly, HUVECs between passes three and four were seeded at a density of 2.5×10^4 cells per cm^2 and cultured to 80% confluence with endothelial cell growth-supplemented medium (EGM-2-endothelial cell medium-2; Cambrex Bio Science Walkersville, Inc.). Once confluent, media was changed to serum free endothelial basal media (EBM-2-endothelial cell medium-2; Cambrex Bio Science Walkersville, Inc.) for 24 hours prior to treatment, in which EBM-2 media supplemented to a 2% FBS concentration was used. Treatments consisted of atorvastatin calcium (AT; LKT Laboratories Inc., St. […] All were dissolved in molecular grade water. All final DMSO concentrations were less then 0.1%. […] In experiments investigating the impact of AT on IL-1beta-stimulated ENA-78 production, HUVECs were pre-treated with AT followed by IL-1beta stimulation two hours later. […] In a separate set of experiments, cells were cultured with IL-1beta and AT in the presence or absence of mevalonate, FPP, and GGPP to determine whether AT inhibition of ENA-78 production was dependent on HMG-CoA reductase inhibition and subsequent downstream pathways. Cell culture supernates for all experiments were stored at -20° C. until analysis, which was performed within seven days. ENA-78 concentrations were measured and normalized to total protein content in cell culture supernates using cytometric immunofluorescence as previously described. Ribonucleic acid (RNA) was isolated using a commercial kit (RNeasy mini kit, Qiagen Inc., Valencia, USA). Complementary deoxyribonucleic acid (cDNA) conversion was performed by high capacity cDNA reverse transcription (Applied Biosystems, Foster City, USA) per protocol using roughly 2 μg of total RNA. RNA quality was assessed by absorbance (Nanodrop, Nanodrop Technologies, Wilmington, USA). Real-time reverse-transcription PCR (RT-PCR) was done using primer and probe sets for CXCL5 normalized to a housekeeping gene, glyceraldehyde-3-phosphate dehydrogenase (GAPDH; Taqman Gene Expression Assays, Applied Biosystems Inc.). […] PCR for both CXCL5 and GAPDH was performed at the same time using the following conditions: 95° C. for 2 minutes; 35 cycles of 95° C. for 30 seconds, 59° C. for 30 seconds, and 72° C. for 30 seconds; followed by 7 minutes of elongation at 72° C. Statistical differences in normalized protein concentrations and gene expression levels were determined by one way ANOVA and post-hoc Tukey analysis. […] An independent t-test was used to compare treatment differences at the same time points in the dose range analysis. […] Statistical analyses were performed with SPSS software, version 11.5 (SPSS Inc., Chicago, USA).

Experiment [2] concerns ENA-78. As to the kind of experiment: ENA-78 production by non-stimulated human umbilical vein endothelial cells, multiplex protein measurement. The format is cell-based. As for the experimental part: (§1) Human umbilical vein endothelial cells were obtained (Clonetics Cell Systems; Cambrex Bio Science Walkersville, Inc., Walkersville, Md.). Approximately 5×10^5 viable cells were seeded in endothelial cell growth-supplemented basal medium (EGM-2-endothelial cell medium-2; Cambrex Bio Science Walkersville, Inc.) and maintained at 37° C. under a 5% carbon dioxide atmosphere per manufacturer's protocol. The culture medium was changed 24 hours after seeding and every 48 hours thereafter until confluence. Cells were then treated with trypsin, seeded in a 48-well culture dish, and incubated under the conditions previously described. Cells used in this Example were from the third passage.
(§2) After cells reached 70-80% confluence in the culture dish, they were allowed to become quiescent in unsupplemented, serum-free medium for 24 hours before treatment and then placed in medium containing 2% fetal bovine serum. Atorvastatin (LKT Laboratories Inc., St. Paul, Minn.) was dissolved in dimethylsulfoxide (Sigma-Aldrich, St. Louis, Mo.). Cells were treated for 24 hours with atorvastatin 1-50 μM alone or with atorvastatin plus mevalonate 250 μM (Sigma-Aldrich). Controls were cells cultured without atorvastatin or atorvastatinmevalonate. […] All experiments were performed in duplicate.
(§3) After treatment, culture-conditioned media were collected, divided into aliquots, and stored at −80° C. for no longer than 7 days until multiplex measurement of chemokines, cytokines, and angiogenic factors was performed.
(§4) The culture-conditioned media protein content of epithelial neutrophil-activating peptide-78 (ENA-78), interleukin-8, (IL-8), monocyte chemotactic protein-1 (MCP-1), interleukin-6 (IL-6), interleukin-10 (IL-10), fibroblast growth factor (FGF), and granulocyte colony-stimulating factor (G-CSF) were measured by means of flow-based immunofluorescence multiplex detection (Fluorokine MAP Human Cytokine Panel; R&D Systems Inc., Minneapolis, Minn.) with the Luminex 100 IS platform (Luminex Corp., Austin, Tex.). Concentrations for each sample were normalized against milligrams of total protein by using a standard bicinchoninic acid protein assay (Pierce Biotechnology, Inc., Rockford, Ill.). Samples were assayed in duplicate.
(§5) Standard curves of best fit for each analyte were generated by plotting the median fluorescence intensities of the analyte standards against their known concentrations by using Beadview multiplex data analysis software version 1 (Upstate, Charlottesville, Va.).
(§6) Differences in biomolecular concentrations were compared by treatment group by applying one-way analysis of variance and a post-hoc Tukey's test as appropriate. The Jonckheere Terpstra test was performed to assess the trend for differences in biomolecular concentrations across concentrations of atorvastatin. […]

The test system of the next experiment is IL-8. Nature of the experiment: IL-8 production by non-stimulated human umbilical vein endothelial cells, multiplex protein measurement. The experiment is classed as cell-based. As for the experimental part:
as §1, §2, §3, §4, §5
Differences in biomolecular concentrations were compared by treatment group by applying one-way analysis of variance and a post-hoc Tukey's test as appropriate. The Jonckheere Terpstra test was performed to assess the trend for differences in biomolecular concentrations across concentrations of atorvastatin. A p value below 0.05 was considered to indicate a statistically significant difference. Statistical analyses were performed with SPSS software, version 11.5 (SPSS Inc., Chicago, Ill.).

A further experiment concerns MCP-1. As to the kind of experiment: MCP-1 production by non-stimulated human umbilical vein endothelial cells, multiplex protein measurement. The experiment is classed as cell-based. The conditions noted are these: highest concentration of atorvastatin plus mevalonate 250 μM. As for the experimental part:
as §1, §2, §3, §4, §5, §6

A further experiment concerns IL-6. As to the kind of experiment: IL-6 production by non-stimulated human umbilical vein endothelial cells, multiplex protein measurement. The format is cell-based. The conditions noted are these: atorvastatin plus mevalonate 250 μM. The protocol:
as §1, with “passage. […]” for “passage.”
The culture-conditioned media protein content of epithelial neutrophil-activating peptide-78 (ENA-78), interleukin-8, (IL-8), monocyte chemotactic protein-1 (MCP-1), interleukin-6 (IL-6), interleukin-10 (IL-10), fibroblast growth factor (FGF), and granulocyte colony-stimulating factor (G-CSF) were measured by means of flow-based immunofluorescence multiplex detection (Fluorokine MAP Human Cytokine Panel; R&D Systems Inc., Minneapolis, Minn.) with the Luminex 100 IS platform (Luminex Corp., Austin, Tex.). […]

In the next experiment the test system is CXCL5. Nature of the experiment: CXCL5 gene expression in HUVECs, real-time RT-PCR normalized to GAPDH. The format is cell-based, human. To be noted: IL-1beta, 24 hours, FIG. 17. As for the experimental part: Human umbilical vein endothelial cells (HUVECs) (Clonetics Cell Systems; Cambrex Bio Science Walkersville, Inc., Walkersville, USA) were cultured as previously described. Briefly, HUVECs between passes three and four were seeded at a density of 2.5×10^4 cells per cm^2 and cultured to 80% confluence with endothelial cell growth-supplemented medium (EGM-2-endothelial cell medium-2; Cambrex Bio Science Walkersville, Inc.). Once confluent, media was changed to serum free endothelial basal media (EBM-2-endothelial cell medium-2; Cambrex Bio Science Walkersville, Inc.) for 24 hours prior to treatment, in which EBM-2 media supplemented to a 2% FBS concentration was used. Treatments consisted of atorvastatin calcium (AT; LKT Laboratories Inc., St. […] All were dissolved in molecular grade water. All final DMSO concentrations were less then 0.1%. […] In experiments investigating the impact of AT on IL-1beta-stimulated ENA-78 production, HUVECs were pre-treated with AT followed by IL-1beta stimulation two hours later. […] In a separate set of experiments, cells were cultured with IL-1beta and AT in the presence or absence of mevalonate, FPP, and GGPP to determine whether AT inhibition of ENA-78 production was dependent on HMG-CoA reductase inhibition and subsequent downstream pathways. Cell culture supernates for all experiments were stored at -20° C. until analysis, which was performed within seven days. ENA-78 concentrations were measured and normalized to total protein content in cell culture supernates using cytometric immunofluorescence as previously described. Ribonucleic acid (RNA) was isolated using a commercial kit (RNeasy mini kit, Qiagen Inc., Valencia, USA). […] RNA quality was assessed by absorbance (Nanodrop, Nanodrop Technologies, Wilmington, USA). […] Statistical differences in normalized protein concentrations and gene expression levels were determined by one way ANOVA and post-hoc Tukey analysis. […]

Where [3] appears, read: highest concentration of atorvastatin.

Regarding farnesyl pyrophosphate [FPP], in the experiment with ENA-78 [1] (FIG. 16), the “effect of co-treatment on the effect of AT on IL-1beta-stimulated ENA-78 production” value (“effect of co-treatment” below) was “partially reversed”.
Regarding geranylgeranyl pyrophosphate [GGPP], the “effect of co-treatment” value in the experiment with ENA-78 [1] (FIG. 16) is listed as “partially reversed”.
Regarding mevalonate, the “effect of mevalonate cotreatment on atorvastatin effect on ENA-78 production” value in the experiment on ENA-78 [2] (atorvastatin plus mevalonate 250 μM, 24 hours) is recorded as “reversed”. For the same substance, the “reversal of atorvastatin effects on ENA-78 by mevalonate” value in the experiment with ENA-78 [2] (setting [3]) was “potentially incomplete reversal”. In the experiment on IL-8 (setting [3]), the “reversal of atorvastatin effects on IL-8 by mevalonate” value is “potentially incomplete reversal”. For the same substance, in the experiment with IL-8 (mevalonate 250 μM, all atorvastatin groups), the “effect of addition of mevalonate on atorvastatin effect on IL-8” value was “reversed”. Moreover, the “effect of mevalonate cotreatment on atorvastatin effect on MCP-1” value in the experiment with MCP-1 was “reversed”. The “effect of mevalonate on atorvastatin effect on IL-6” value in the experiment on IL-6 was “eliminated”. The “effect of co-treatment” value in the experiment with ENA-78 [1] (FIG. 16) is “partially reversed”.
On to interleukin-1beta [IL-1beta], for which the “stimulation of ENA-78 production by IL-1beta, times that of basal production” value in the experiment with ENA-78 [1] (4 hours) amounted to 29 times; in the experiment with ENA-78 [1] (12 hours), 282 times; in the experiment on ENA-78 [1] (24 hours), 892 times; with ENA-78 [1] (48 hours), 1322 times. In the experiment with ENA-78 [1] (IL-1beta 2 ng/ml, FIG. 14), the “IL-1beta stimulated ENA-78 production relative to constitutive concentrations” value was ~60 fold. The “IL-1beta stimulated ENA-78 production” value with ENA-78 [1] (IL-1beta 2 ng/ml, no AT (constitutive 69±11 pg/mg), FIG. 14) came to 4075 ± 360 pg/mg. For the same substance, the “IL-1beta-stimulated ENA-78 production” value with ENA-78 [1] (IL-1beta alone, mevalonate experiment, FIG. 16) worked out at 3181 ± 590 pg/mg. Further, the “CXCL5 expression in HUVECs” value with CXCL5 is “highly induced”.
